How the values were obtained:
tRNA = assay: Photobinding to RNA; format: binding; conditions: 100 µg/ml, irradiated 30 minutes; 1-10 µg treated tRNA spotted; no signal from unirradiated controls
Experimental: This example describes photobinding of ^3H-AMIP, ^3H-AMDMIP and BIOMIP to RNA. A tRNA stock was prepared at a concentration of 765 µg/ml in 1 x TE / 10 mM NaCl. Appropriate amounts of each compound were prepared in separate reaction vessels such that upon addition of 200 µl of the tRNA solution (153 µg) the final concentration of each compound was 100 µg/ml. ^3H-AMIP and […] in the experiment; the BIOMIP used was unlabelled. Each reaction vessel was then irradiated for 30 minutes at 25 °C in the CE-III device. Identical unirradiated reaction mixtures were used as controls for each compound. Following irradiation, each mixture was extracted with CHCl3 (4 x 200 µl) then precipitated (X2). The pellets were resuspended in 1 x TE and the binding levels determined as follows. For the two labelled compounds (^3H-AMDMIP and ^3H-AMIP), the nucleic acid concentration was determined optically and radioactivity measured by scintillation counting of aliquots of the stock solutions. Binding of the compounds was then calculated to be as follows:
To determine if binding of BIOMIP to tRNA has occurred, it was necessary to use a non-radioactive format which detected the biotin moiety on the compound. A commercial kit ("BluGene"; BRL) was used for this purpose. The kit instructions were followed for detection of both the control DNA (supplied with the kit) and BIOMIP treated tRNA. […]

PCR'd MACS 1555 = assay: Inhibition of PCR by non-psoralen compounds in the absence of light; format: biochemical; conditions: 30 cycles
From the text: The compounds tested were the following: 1) ethidium bromide (a Phenanthridine, see Table 1), 2) xylene cylanol (an Organic Dye, see Table 1), 3) bromphenol blue (an Organic Dye, see Table 1), 4) coumarin and 5) methylene blue (a Phenazathionium Salt, see Table 1).
A separate experiment examined PCR inhibition with coumarin and methylene blue in the absence of light. The following concentrations of methylene blue were tried: 4.3 x 10^-2, 4.3 x 10^-3, 4.3 x 10^-4 and 4.3 x 10^-5 M. Concentrations of coumarin tried included: 7 x 10^-3, 7 x 10^-4, 7 x 10^-5 and 7 x 10^-6 M. Compound was added to PCR tube containing α-^32P-dCTP and target (1 µl […].; PCR'd MACS 1555 per assay-point). PCR was carried out for 30 x cycles. Samples were loaded onto a 12% / 8 M urea gel.

| Molecule | binding to tRNA detected via biotin moiety (BluGene kit) (tRNA) | inhibition of PCR in the absence of light (PCR'd MACS 1555) |
| --- | --- | --- |
| 5-N-[N,N'-Dimethyl-(6-[biotinamido]-hexanoate) -1,6-hexanediamine])-methyl-isopsoralen [BIOMIP] | covalently bound to the tRNA |  |
| O=c1ccc2ccccc2o1 [Coumarin, coumarin] |  | did not inhibit PCR at any of the concentrations tested |
